Test results taken from US20160002180A1, “ANTIVIRAL COMPOUNDS” (priority 2013, published 2016).

Assays:
Assay in all cases: microbe, parasite or virus in culture
Type in all cases: cell-based
[1] = tested on: HCVpp GT-1a (pseudotyped HCV GT1a particles, E1 and E2 envelope proteins of GT1a H77 strain); details: Hepatitis C virus, 72 h, read-out: HCVpp GT-1a (EC50, μM)
[2] = tested on: HCVpp GT-1b (pseudotyped HCV GT1b particles, E1 and E2 envelope proteins of GT1b Con1 strain); details: Hepatitis C virus, 72 h, read-out: HCVpp GT-1b (EC50, μM)
[3] = tested on: VSVpp (pseudotyped VSV G particles); details: Vesicular stomatitis virus, 72 h, read-out: VSVpp (EC50, μM)

With Cc1nc(Nc2cc(Cl)cc(Cl)c2)n[nH]1 [Compound 1, (3,5-Dichloro-phenyl)-(5-methyl-1H-[1,2,4]triazol-3-yl)-amine] the EC50 [1] was 1.99 µM, the EC50 [2] was 6.25 µM and the EC50 [3] was 100 µM.

Work on Clc1cc(Cl)cc(Nc2n[nH]c(-c3ccccc3)n2)c1 [Compound 2, (3,5-Dichloro-phenyl)-(5-phenyl-1H-[1,2,4]triazol-3-yl)-amine] yielded an EC50 [1] of 26.7 µM, an EC50 [2] of 27.5 µM and an EC50 [3] of 30.1 µM.

NCc1nc(Nc2cc(Cl)cc(Cl)c2)n[nH]1 [Compound 3, (5-Aminomethyl-1H-[1,2,4]triazol-3-yl)-(3,5-dichloro-phenyl)-amine] showed an EC50 [2] of 100 µM and an EC50 [3] of 100 µM.

Work on Fc1n[nH]c(Nc2cc(Cl)cc(Cl)c2)n1 [Compound 4, (3,5-Dichloro-phenyl)-(5-fluoro-2H-[1,2,4]triazol-3-yl)-amine] yielded an EC50 [1] of 28.7 µM, an EC50 [2] of 30.1 µM and an EC50 [3] of 30.9 µM.

Molecule COCc1n[nH]c(Nc2cc(Cl)cc(Cl)c2)n1 [Compound 5, (3,5-Dichloro-phenyl)-(5-methoxymethyl-2H-[1,2,4]triazol-3-yl)-amine] has an EC50 [1] of 4.13 µM, an EC50 [2] of 24.2 µM and an EC50 [3] of 100 µM.

Molecule COCc1n[nH]c(Nc2cc(Cl)nc(Cl)c2)n1 [Compound 6, (2,6-Dichloro-pyridin-4-yl)-(5-methoxymethyl-2H-[1,2,4]triazol-3-yl)-amine] has an EC50 [1] of 4.59 µM, an EC50 [2] of 35.5 µM and an EC50 [3] of 100 µM.

Molecule Clc1cc(Cl)cc(Nc2nc(Br)n[nH]2)c1 [Compound 7, (5-Bromo-2H-[1,2,4]triazol-3-yl)-(3,5-dichloro-phenyl)-amine] has an EC50 [1] of 16.5 µM, an EC50 [2] of 20.8 µM and an EC50 [3] of 28.2 µM.

COc1n[nH]c(Nc2cc(Cl)cc(Cl)c2)n1 [Compound 8, (3,5-Dichloro-phenyl)-(5-methoxy-2H-[1,2,4]triazol-3-yl)-amine] was tested, and the EC50 [1] was 15.9 µM, the EC50 [2] was 52.6 µM and the EC50 [3] was 100 µM.

With COc1n[nH]c(Nc2cc(Cl)nc(Cl)c2)n1 [Compound 9, (2,6-Dichloro-pyridin-4-yl)-(5-methoxy-2H-[1,2,4]triazol-3-yl)-amine] the EC50 [1] was 13.2 µM, the EC50 [2] was 45.3 µM and the EC50 [3] was 98 µM.

Work on COc1n[nH]c(Nc2ccc(C#N)c(C(F)(F)F)c2)n1 [Compound 10, 4-(5-Methoxy-2H-[1,2,4]triazol-3-ylamino)-2-trifluoromethyl-benzonitrile] yielded an EC50 [1] of 7.53 µM, an EC50 [2] of 7.83 µM and an EC50 [3] of 8.3 µM.

COc1n[nH]c(Nc2cc(Cl)c(Br)c(Cl)c2)n1 [Compound 11, (4-Bromo-3,5-dichloro-phenyl)-(5-methoxy-2H-[1,2,4]triazol-3-yl)-amine] showed an EC50 [1] of 2.1 µM, an EC50 [2] of 7.23 µM and an EC50 [3] of 12.7 µM.

Clc1cc(Cl)cc(Nc2nc(Cl)n[nH]2)c1 [Compound 12, (5-Chloro-2H-[1,2,4]triazol-3-yl)-(3,5-dichloro-phenyl)-amine] showed an EC50 [1] of 13.8 µM and an EC50 [3] of 14 µM.

CS(=O)(=O)c1n[nH]c(Nc2cc(Cl)cc(Cl)c2)n1 [Compound 13, (3,5-Dichloro-phenyl)-(5-methanesulfonyl-2H-[1,2,4]triazol-3-yl)-amine] was tested, and the EC50 [1] was 100 µM and the EC50 [3] was 100 µM.

CS(=O)(=O)c1n[nH]c(Nc2cc(Cl)c(Br)c(Cl)c2)n1 [Compound 14, (4-Bromo-3,5-dichloro-phenyl)-(5-methanesulfonyl-2H-[1,2,4]triazol-3-yl)-amine] gave an EC50 [1] of 100 µM and an EC50 [3] of 100 µM.

Work on CN(C)c1nc(Nc2cc(Cl)cc(Cl)c2)n[nH]1 [Compound 15, N^3-(3,5-Dichloro-phenyl)-N^5,N^5-dimethyl-1H-[1,2,4]triazole-3,5-diamine] yielded an EC50 [1] of 24.8 µM and an EC50 [3] of 100 µM.

CN(C)c1nc(Nc2cc(Cl)c(Br)c(Cl)c2)n[nH]1 [Compound 16, N^3-(4-Bromo-3,5-dichloro-phenyl)-N^5,N^5-dimethyl-1H-[1,2,4]triazole-3,5-diamine] showed an EC50 [1] of 1.58 µM and an EC50 [3] of 43.1 µM.

For Clc1cc(Nc2ncn[nH]2)cc(Cl)c1Cl [Compound 17, (2H-[1,2,4]Triazol-3-yl)-(3,4,5-trichloro-phenyl)-amine], the EC50 [1] was 0.392 µM and the EC50 [3] was 28.2 µM.

Molecule Clc1cc(Nc2ncn[nH]2)cc(Cl)c1Br [Compound 18, (4-Bromo-3,5-dichloro-phenyl)-(2H-[1,2,4]triazol-3-yl)-amine] has an EC50 [1] of 0.252 µM, an EC50 [2] of 2.52 µM and an EC50 [3] of 22.4 µM.

Work on CNc1nc(Nc2cc(Cl)cc(Cl)c2)n[nH]1 [Compound 19, N^3-(3,5-Dichloro-phenyl)-N^5-methyl-1H-[1,2,4]triazole-3,5-diamine] yielded an EC50 [1] of 3.41 µM and an EC50 [3] of 100 µM.

With N#Cc1c(Cl)cc(Nc2ncn[nH]2)cc1Cl [Compound 20, 2,6-Dichloro-4-(2H-[1,2,4]triazol-3-ylamino)-benzonitrile] the EC50 [1] was 0.121 µM, the EC50 [2] was 1.66 µM and the EC50 [3] was 100 µM.

In the case of CNc1nc(Nc2ccc(C#N)c(C(F)(F)F)c2)n[nH]1 [Compound 21, 4-(5-Methylamino-1H-[1,2,4]triazol-3-ylamino)-2-trifluoromethyl-benzonitrile], the EC50 [1] is reported as 1.26 µM, the EC50 [2] is reported as 5.01 µM and the EC50 [3] is reported as 24.9 µM.

With FC(F)(F)c1nc(Nc2cc(Cl)cc(Cl)c2)n[nH]1 [Compound 22, (3,5-Dichloro-phenyl)-(5-trifluoromethyl-1H-[1,2,4]triazol-3-yl)-amine] the EC50 [1] was 5.5 µM, the EC50 [2] was 5.63 µM and the EC50 [3] was 6.7 µM.

With Clc1cc(Cl)cc(Nc2ncn(Cc3ccccc3)n2)c1 [Compound 23, (1-Benzyl-1H-[1,2,4]triazol-3-yl)-(3,5-dichloro-phenyl)-amine] the EC50 [1] was 28.9 µM, the EC50 [2] was 53 µM and the EC50 [3] was 46.5 µM.

With Clc1cc(Cl)cc(Nc2ncnn2Cc2ccccc2)c1 [Compound 24, (2-Benzyl-2H-[1,2,4]triazol-3-yl)-(3,5-dichloro-phenyl)-amine] the EC50 [1] was 27.1 µM, the EC50 [2] was 32.5 µM and the EC50 [3] was 34.9 µM.

Molecule Clc1cc(Cl)cc(Nc2nc[nH]n2)c1 [Compound 25, (3,5-Dichloro-phenyl)-(1H-[1,2,4]triazol-3-yl)-amine] has an EC50 [1] of 1.06 µM, an EC50 [2] of 5.17 µM and an EC50 [3] of 97 µM.

Fc1c(Cl)cc(Nc2ncnn2Cc2ccccc2)cc1Cl [Compound 26, (2-Benzyl-2H-[1,2,4]triazol-3-yl)-(3,5-dichloro-4-fluoro-phenyl)-amine] was tested, and the EC50 [1] was 16.2 µM, the EC50 [2] was 27.1 µM and the EC50 [3] was 17.5 µM.

For Fc1c(Cl)cc(Nc2ncn(Cc3ccccc3)n2)cc1Cl [Compound 27, (1-Benzyl-1H-[1,2,4]triazol-3-yl)-(3,5-dichloro-4-fluoro-phenyl)-amine], the EC50 [1] was 6.13 µM, the EC50 [2] was 8.91 µM and the EC50 [3] was 9.11 µM.

Fc1c(Cl)cc(Nc2nc[nH]n2)cc1Cl [Compound 28, (3,5-Dichloro-4-fluoro-phenyl)-(1H-[1,2,4]triazol-3-yl)-amine] gave an EC50 [1] of 0.477 µM, an EC50 [2] of 3.77 µM and an EC50 [3] of 84.1 µM.

With Nc1cccc(Nc2ncn(Cc3ccccc3)n2)c1 [Compound 29, N-(1-Benzyl-1H-[1,2,4]triazol-3-yl)-benzene-1,3-diamine] the EC50 [1] was 95 µM, the EC50 [2] was 87.2 µM and the EC50 [3] was 100 µM.

In the case of Clc1cc(Nc2nc[nH]n2)cc(Cl)n1 [Compound 30, (2,6-Dichloro-pyridin-4-yl)-(1H-[1,2,4]triazol-3-yl)-amine], the EC50 [1] is reported as 1.06 µM and the EC50 [3] is reported as 100 µM.

With Fc1c(Cl)cc(Nc2n[nH]c(N3CCOCC3)n2)cc1Cl [Compound 31, (3,5-Dichloro-4-fluoro-phenyl)-(5-morpholin-4-yl-1H-[1,2,4]triazol-3-yl)-amine] the EC50 [1] was 25.8 µM and the EC50 [3] was 29.9 µM.

Molecule CC(C)c1nc(Nc2cc(Cl)cc(Cl)c2)n[nH]1 [Compound 32, (3,5-Dichloro-phenyl)-(5-isopropyl-1H-[1,2,4]triazol-3-yl)-amine] has an EC50 [1] of 22.1 µM and an EC50 [3] of 33.8 µM.

With CC(C)Cc1nc(Nc2cc(Cl)cc(Cl)c2)n[nH]1 [Compound 33, (3,5-Dichloro-phenyl)-(5-isobutyl-1H-[1,2,4]triazol-3-yl)-amine] the EC50 [1] was 1.26 µM, the EC50 [2] was 61.7 µM and the EC50 [3] was 100 µM.

Clc1cc(Cl)cc(Nc2n[nH]c(Cc3ccccc3)n2)c1 [Compound 34, (5-Benzyl-1H-[1,2,4]triazol-3-yl)-(3,5-dichloro-phenyl)-amine] showed an EC50 [1] of 0.785 µM, an EC50 [2] of 13.5 µM and an EC50 [3] of 38.9 µM.
